Test system: NIH/3T3 mouse fibroblasts
Assay: Elution cytotoxicity test
Format: cell-based
Description: Elution tests were performed on one sample of the pentablock material to assess the cytotoxic properties of the pentablock copolymers. Approximately 30 mg of the polymers to be tested were dissolved in 100 ml of low-glucose Dulbecco's modified eagle medium (DMEM, Sigma) with 10% fetal bovine serum (FBS, Sigma), 10 μg/ml insulin (Sigma), 10 units/ml penicillin/streptomycin (Sigma), and 100 μg/ml L-ascorbic acid (Sigma). This solution was diluted to achieve the desired polymer concentration for all tests.
NIH/3T3 mouse fibroblasts were grown in polystyrene flasks until reaching confluence at 150 cells/mm. The growth media was removed from the flasks and replaced with one of the following: DMEM (negative control), DMEM with phenol (positive control), DMEM with the pentablock material. The concentrations of the pentablock material and phenol were 3 mg/L, 0.3 mg/L and 0.03 mg/L.
After 24 hours of incubation in a humidified incubator with 5% CO2 at 37° C. the samples were removed and the media was replaced with Karnovsky's fixative (2.5% glutaraldehyde, 2.0% paraformaldehyde, 0.1M sodium cacodylate) for 12 hours. The samples were then stained with a 20% crystal violet dye (CVD) solution in ethanol for 6 hours followed by dehydration with ethanol. […]

PDEAEM-b-PEO-b-PPO-b-PEO-b-PDEAEM [pentablock copolymer]
cell adhesion to polystyrene substrate and confluence after test period: good adhesion to the polystyrene cell culture substrate and the cells remained confluent
